Experiments:
EMT-induced SAS cells = assay: Flow cytometry analysis of peptide binding to EMT-induced cells; assay type: cell-based, human; settings: 50 ng/μl labeled peptide, 24 h, 37 °C, after Unc0642 and/or IR treatment
Experimental: Figure 4 Evaluation of peptide binding activity to EMT derived cells induced by Unc0642/IR. After treatment of Unc0642 or radiation, EMT derived cells were incubated for 24 h in the presence of 50 ng/μl of fluorescein-labeled F7 (a) and SP peptide (b) at 37 °C respectively. FACS analysis was performed on gated live cells and light scatter parameters were measured using the 488 nm laser. The dot plot represented the particle size (FSC) versus granularity (SSC) of the cell population. The histogram represented the number of cells from P1 and P2 regions displaying a given fluorescence signal. Right graph: the quantitative analysis in the ratio of fluorescein-labeled peptides binding to SAS cells.
The cells were treated for EMT induction as described above. Then, 50 ng/μl of F7 and SP peptides were added into the culture medium and co-incubated for 24 h. The cells were detached and fixed with 3.7% paraformaldehyde for 15 min followed by resuspension in PBS. FACS analysis was performed on gated live cells using a flow cytometer (Beckman Coulter CytoFLEX, Brea, CA, USA).

[1] = test system: SAS spheres expressing CD44; assay: Peptide binding to tumor spheres (confocal microscopy); assay type: cell-based, human; settings: fluorescein-labeled peptides, 24 h incubation
Description: Figure 2 Expression of CSC markers corresponding to peptide binding. (a) Phase-contrast photomicrographs of the spheres cultured from SAS-E2-crimson-P2A::ttksr39 cell line using the ultra-low attachment plate. Right panel: adherent cells. magnification, 100×. (b) ICC results showing the expression of representative CSC marker, CD44 and EMT markers, vimentin and nucleolin in spheres (upper panel) and adherent cells (lower panel). E-cadherin is an epithelial cell marker. (c) The peptide binding to tumor spheres which highly expressed CD44. The arrow indicates the presence of F7 and SP peptide. Red: Lissamine Rhodamine labeled F7 peptide, Green: FITC labeled SP peptide, Blue: DAPI; Scale bar, 20 μm. (d) Comparison of peptides binding to spheres and adherent cells. Yellow: colocalization.
SAS cells were seeded in a 6-well cell culture plate with ultra-low attachment (Corning Costar, Tewksbury, MA, USA) at the density of 1 × 10^5 cells/well and incubated for 3–5 days in a 5% CO2 humidified incubator at 37 °C. All measurements on the SAS spheroids were carried out with a diameter of approximately 0.75 mm. For ICC-IF staining, the spheroids were fixed in 3.7% paraformaldehyde, washed with PBS and permeated with 0.1% Triton X-100 for 10 min before blocking with 20% FBS for 10 min at 37 °C, followed by the incubation with anti-CD44 antibody (GTX102111, GeneTex, Irvine, CA, USA) at 4 °C overnight. […]

SAS cells [2] = assay: Fluorescence-based peptide binding assay (confocal microscopy); assay type: cell-based, human; settings: 50 ng/μl labeled peptide, 37 °C; for Cell uptake: fluorescent signal in cytoplasm: one hour and later
Experimental: Figure 1 Evaluation of peptide binding activity to SAS cells. (a) IF analysis of F7 peptide and SP peptide binding to SAS cells. […] Red: Lissamine Rhodamine labeled F7 peptide, Green: FITC labeled SP peptide, Blue: DAPI; BF, bright field; Scale bar, 10 μm. (b) The kinetics of F7 peptide binding to SAS-EGFP-Fluc cells. Cells were incubated in the presence of 50 ng/μl peptides at 37 °C for the indicated periods of time. (c) The kinetics of SP peptide binding to SAS-E2-crimson-P2A::ttksr39 cells at indicated time points.
SAS-EGFP-Fluc and SAS-E2-crimson-P2A::ttksr39 were seeded on 8-well chamber slides and incubated with fluorescein labeled F7 peptide and SP peptide respectively for the different time points (0, 0.25, 0.5, 1, 2, 4, 8, 12 and 24 h). HEK293 cell lines without expression of vimentin and nucleolin served as a negative control for the specificity of peptides. After removal of the medium and a PBS rinse, the cells were fixed with 3.7% paraformaldehyde for 10 min followed by PBS washing for 3 times. Subsequently, all slides were mounted with VECTASHIELD Mounting Medium with DAPI (cat. H-1200, Vector Labs, Burligame, CA, USA) and covered with cover glasses before visualization under a laser-scanning microscope (Zeiss LSM 880, Jena, Germany) with Zen Blue software (ZEISS, Jena, Germany).

[3] = 37 °C, ref previous studies; cited from earlier work
Description: Despite the cancer cells captured by F7 or SP peptide were identified as CSCs that expressed CD44, single peptide binding cells (F7+ or SP+) and double peptides binding cells (F7+ /SP+ , as shown in Fig. 2d) were considered as different subpopulations that exist at the different stages of cancer. […] There are several possibilities for these findings. First, the permeability ...

SAS xenograft tumor = assay: Peptide binding in tumor after intra-tumoral injection (IF of excised tumor); assay type: in vivo, mouse; settings: intra-tumoral injection on day 31, tumors excised after 24 h; Unc0642/IR-treated groups versus control; F7 in SAS-EGFP-Fluc, SP in SAS-wt tumors
Description: Figure 5 Evaluation of peptide binding ability in SAS xenograft mouse model after the treatment of Unc0642/IR. (a) Schematic diagram for in vivo EMT induction via the treatment of Unc0642 and radiation. (b) Evaluation of the effect of Unc0642/IR in SAS-EGFP-Fluc-bearing mice by optical bioluminescence image. (c) Tumor burden of each group was monitored at indicated time points. Data represent mean ± SD (n = 5–6/group). *p < 0.05, **p < 0.01, ***p < 0.001 by Student’s t-test. ***p = 0.00058, Ctrl versus Unc0642 on day 14; *p = 0.049, Ctrl versus IR on day 18; **p = 0.0023, Ctrl versus IR on day 21; *p = 0.0179, Ctrl versus IR on day 24; *p = 0.036, Ctrl versus Unc0642 + IR on day 24. (d) The body weights of mice were recorded during the period of monitoring. Data are mean ± SD (n = 5–6/group). (e, f) Mice were given an intra-tumoral injection of peptide. At 24 h later, tumor samples were excised and the signal derived from the peptide was observed using confocal microscopy. Representative confocal micrographs of tissue sections immunolabeled with CD44. The arrowheads indicate the presence of F7 and SP peptide. Blue: DAPI. Scale bar, 20 μm. […]

SAS cells [4] = assay: Western blot of EMT/CSC markers after in vitro induction of EMT; assay type: cell-based, human; settings: TGF-β1 10 and 20 ng/ml, SAS cells, immunoblotting (Fig. S2)
Experimental: To induce the EMT of SAS cells, cells were seeded in 60 mm^2 dishes at the density of 1 × 10^6 cells/dish overnight and incubated with 1.25 and 10 μM Unc0642. After 24 h, cells were exposed under 2 Gy and 4 Gy of radiation by a RS2000 Series Biological Irradiator (Rad Source Technologies Inc, Buford, GA, USA) and replaced with fresh Unc0642 containing medium every 24 h. The expression of vimentin and E-cadherin were detected by western blotting.
Cultured cells were placed on ice, washed by ice-cold PBS and lysed using CytoBuster Protein Extraction Reagent (cat. 71,009, Bedford, MA, USA) containing Protease Inhibitor Cocktail Set I (cat. 539131, Millipore, Bedford, MA, USA). Cells were then scraped, collected in Eppendorf tubes and the sonicated for 30 min. The lysate was spun down at 12,000 g for 10 min at 4 °C. The protein content was measured using Bradford reagent (BIO-RAD, Hercules, CA, USA). The equal amounts of protein (40 μg) were separated in SDS-PAGE gels (30% Acrylamide/Bis Solution, 29:1, cat. 1610157, BIO-RAD, Hercules, CA, USA) and transferred to PVDF membranes (cat. NEF1002001PK, Perkin-Elmer life sciences, Boston, MA, USA). For immunoblotting, membranes were cut in terms of the molecular weight range prior to hybridization with primary antibody for vimentin (GTX100619, GeneTex, Irvine, CA, USA), nucleolin (GTX132778, GeneTex, Irvine, CA, USA), E-cadherin (GTX50757, GeneTex, Irvine, CA, USA) and b-actin (GTX109639, GeneTex, Irvine, CA, USA) overnight at 4 °C and then incubated with horseradish peroxidase HRP-conjugate goat anti-rabbit IgG (GeneTex, Irvine, CA, USA). Protein signals were visualized using a LumiFast Chemiluminescence Detection Kit (cat. JT96-K001S, T-Pro Biotechnology, Taiwan). Image capture was performed on an ImageQuant LAS4000 biomolecular image (GE healthcare life, Chicago, IL, USA). The intensities of protein bands were quantitated using ImageJ Gel Analysis program. Quantification of protein expression was performed by Image J. b-actin was used as loading control.

Substance | Peptide binding to EMT-induced SAS cells (FACS) (EMT-induced SAS cells) | Binding to CD44 expressing spheres [1] | Intracellular localisation at 24 h (SAS cells [2]) | Cell uptake: fluorescent signal in cytoplasm (SAS cells [2]) | Stability in the presence of serum [3] | Amount of labeled peptide in tumor tissue (SAS xenograft tumor) | E-cadherin expression (SAS cells [4]) | Vimentin expression (SAS cells [4])
DMPGTVLP [F7 peptide] | increased with increasing dose of IR and Unc0642 | able to bind and detect CSCs | remained at the edge of nucleus and no longer moved | appeared in cytoplasm gradually and accumulated with the incubation time | high stability | increased in tumor tissues |  | 
SAHGTSTGVPWP [SP peptide] | significantly higher in combined Unc0642- and IR-treated SAS cells | able to bind and detect CSCs | remained at the edge of nucleus and no longer moved | appeared in cytoplasm gradually and accumulated with the incubation time | high stability | increased in tumor tissues |  | 
TGF-β1: multifunctional cytokine used to induce EMT |  |  |  |  |  |  | downregulated the expression of E-cadherin | upregulated the expression of vimentin
